Key:
hAd4 (RI-67 strain) = assay: Virucidal efficacy: cytopathic effect of pretreated hAd4 in A549 cell monolayers; assay type: cell-based; conditions: hAd4 pretreated 1 h at 35° C.; 10^7 PFU (and 1:10 dilution); A549 lung epithelial cells; 2 days post infection; vs PBS-treated virus (marked CPE)
Description: (§1) The experiments included human (hAd) serotypes of species B (hAd3), C (hAd5), and E (hAd4) and the long strain of RSV, representative of A. Two independent experiments were carried out for each virus.
Phosphate buffered saline (PBS) pretreatment of virus suspensions was used as a control.
After the 1-h incubation, 100 μl of the treated virus containing a total of 10^7 to 10^6 plaque forming units (PFU) of virus or their corresponding 1:10 or 1:100 dilutions were used to infect monolayers of A549 lung epithelial cells in quadruplicate 24-well plates. […] Viral cytopathic effect was examined at 2 days post infection. One hundred μl of a dilution 1:10 of the original treated samples containing 10^6 PFU were used to infect additional wells. (C: PBS-treated 1:10; E: SinoFresh® product-treated 1:10; G: CPC-treated 1:10).

RSV (Long strain) = assay: Virucidal efficacy: syncytia formation by pretreated RSV in Hep-2 cell monolayers; assay type: cell-based; conditions: RSV pretreated 1 h at 35° C.; Hep-2 cells; two experiments (starting 10^7 PFU and 109 PFU); 0.05% CPC
Description: as §1
One hundred microliters (μl) of each virus suspension containing 5×10^6 PFU or 5×10^5 PFU were subsequently used to infect monolayers of Hep-2 cells in quadruplicate in 24-well plates. […] Viral cytopathic effect was examined at 2 days post infection. One hundred μl of a dilution 1:10 of the original treated samples containing […] were used to infect additional wells (Block C: PBS-treated 1:10; E: SinoFresh® product-treated 1:10; G: CPC-treated 1:10).
A second independent experiment was carried out with a starting concentration of 10^9 PFU.

## CCCCCCCCCCCCCCCC[n+]1ccccc1 [CPC, 1-hexa-decyl pyridinium chloride]
hAd4 (RI-67 strain)
  development of cytopathic effect (CPE): no obvious CPE
RSV (Long strain)
  syncytia formation in infected monolayers: prevented syncytia formation

Reference: patent US20060019987A1, “Methods and compositions for inhibiting, destroying, and/or inactivating viruses” (priority 2004, published 2006)
